# Results as given in patent US10927096B2, “Ester substituted ion channel blockers and methods for use” (Nocion Therapeutics, Inc., priority 2019, dated 2021).
# What was measured:
# [1] = target: T1, NaV1.7 (Homo sapiens, UniProt Q15858); assay: Whole cell patch clamp, external block of NaV1.7 current; assay type: cell-based; conditions: % inhibition, compound in external solution, manual whole cell patch clamp, read-out: Nav1.7 Extracellular Inhibition; for inhibition at 10 µM: test concentration 10 μM; for inhibition at 100 µM: test concentration 100 μM; for inhibition at 30 µM: test concentration 30 μM; for inhibition at 3 µM: test concentration 3 μM; for inhibition at 1 µM: test concentration 1 μM
# T1 construct: expressed in transfected cells; host or cells: HEK293, tetracycline-inducible
# Method: (§1) NaV1.7 was expressed upon induction with tetracycline. Cells were cultured in DMEM containing 10% dialyzed Fetal Bovine Serum (VWR, Radnor, Pa.), 1% Glutamax (VWR, Radnor, Pa.), 1% Penicillin-Streptomycin (VWR, Radnor, Pa.), 100 mg/L Hygromycin (Thermo Fisher Scientific, Waltham, Mass. and 5 mg/L Blasticidin (Alfa Aesar, Haverhill, Mass.). Cells were grown and maintained at 37° C. in a humidified environment containing 10% C02 in air. Cells were detached from the culture flask for passage and harvested using 0.05% Trypsin-EDTA (Thermo Fisher Scientific, Waltham, Mass.). To induce NaV1.7, cells were induced with tetracycline (0.1-1 μg/mL, IBI Scientific, Peosta, Iowa) the day before recording and plated onto 24-well plates. Cells were washed with DPBS (VWR, Radnor, Pa.), trypsinized and then triturated five times in 10 mL of growth media to break apart cell aggregates. For one 24-well plate, 2 mL of cell suspension was mixed with 23 mL of fresh growth media and 0.1-1 μg/mL tetracycline added. 1 ml of mixed media with cells was then added to each well of a 24-well plate, with a 12 mm coverslip already placed in the bottom of the well. Cells were then incubated in 37° C. and 10% CO2 overnight.
# (§2) The intracellular solution contained the following (in mM) CsCl 135, NaCl 10, EGTA 10, HEPES 10, MgCl2 2, adjusted to pH 7.2 with CsOH. The external solution was a normal Ringer solution containing (in mM) NaCl 155, HEPES 10, glucose 10, KCl 3.5, CaCl2 1.5, MgCl2 1 adjusted to pH 7.4 with NaOH. CsCl is from Alfa Aesar, Haverhill, Mass. All other chemicals are from Sigma-Aldrich, St. Louis, Mo. In order to test the degree of internal block by test compounds the compounds were dissolved in internal solution at the indicated test concentration. […] In order to test the degree of external block by test compounds the compounds were dissolved in external solution at the indicated test concentration.
# (§3) 18-24 hours after cells were induced with tetracycline, coverslips were placed into a chamber filled with Normal Ringer solution at room temperature and the chamber placed on a microscope. Pipettes were pulled from borosilicate glass on a P97 puller (Sutter Instrument, Novato, Calif.) and polished with a MF-830 Microforge (Narishige International USA, Inc, Amityville, N.Y.) to have a resistance of 1.5-2.5 MΩ when filled with CsCl internal solution at room temperature. Healthy cells (those that are round and translucent with no visible blemishes) were chosen for seal formation. A seal was formed between the pipette and the cell, and a brief pulse of suction was used to “break in” and establish the whole-cell configuration. The membrane potential was held at −100 mV before the voltage protocol began. Only cells with series resistance between 1.5-5 MΩ were retained for analysis. The voltage protocol was as follows: Cells were held at −100 mV for 12 ms followed by a hyperpolarizing step to −105 mV for 12 ms to monitor the leak. Cells were then stepped back to −100 mV for 40 ms. Cells were then depolarized to −20 mV for 10 ms and then returned to −100 mV for 26 ms (The FIGURE).
# Once the recording was started, the voltage protocol was run at 30 second intervals for 5 minutes to get a stable baseline. This is followed by 5 Hz stimulation of the same voltage protocol run until the end of experiment. […] The test compound is added for 5 minutes before washing out with normal Ringer's solution. Currents were recorded using PatchMaster software with Heka EPC10 (HEKA Electronics, Lambrecht, Germany). Only cells with inward current amplitudes at −20 mV between 400 pA and 4 nA were accepted. In addition, cells having leak currents greater than 10% of their current amplitudes were discarded.
# (§4) The data was plotted using the Patchmaster software (HEKA Electronics, Lambrecht, Germany) and analyzed by plotting the minimum current during the voltage step to −20 mV (peak inward current) as a function of time. […]
# [2] = target: T1, NaV1.7; assay: Whole cell patch clamp, internal block of NaV1.7 current; assay type: cell-based; conditions: % inhibition at 1 μM test concentration, compound in internal solution, manual whole cell patch clamp
# Method: as §1, §2, §3
# Once the recording was started, the voltage protocol was run at 30 second intervals for 5 minutes to get a stable baseline. This was followed by four 30-second periods of 5 Hz stimulation of the same voltage protocol separated by 1 minute of rest which was then followed by 0.33 Hz stimulation after the last train. Currents were recorded using PatchMaster software with Heka EPC10 (HEKA Electronics, Lambrecht, Germany). Only cells with inward current amplitudes at −20 mV between 400 pA and 4 nA were accepted. In addition, cells having leak currents greater than 10% of their current amplitudes were discarded.
# as §4
# [3] = PAMPA membrane permeability assay; assay type: physicochemical; conditions: pH 7.4 buffer, GIT lipid, 4 hours incubation
# Method: The PAMPA assay (pION, Inc., Woburn Mass.) was used to determine the ability of compounds of the invention to cross an artificial lipid membrane by passive diffusion. Test compounds were dissolved in DMSO (10 mM) and diluted 200-fold in buffer (pION Inc., pH 7.4) to provide 50 uM stock solutions. Buffer (150 μL) was added to a UV blank plate and stock solutions (150 μL) were transferred to a UV reference plate. The blank and reference spectrum were read using a spectrophotometer. Stock solutions (200 μL) were added to the donor plate of the PAMPA sandwich plate and an accept plate painted with GIT lipid (pION Inc, 5 μL) was placed on top. Buffer (200 μL) was added to the acceptor plate and the PAMPA sandwich plate was incubated for 4 hours. Aliquots (150 μL) from the acceptor plate were added to a UV plate and read as acceptor spectrum. Aliquots (150 μL) of the donor solutions were added to a UV analysis plate and read as donor spectrum. The permeability coefficient of test compounds was calculated using PAMPA Explorer™ software (version 3.5.0.4) based on the AUC of the reference plate, the donor plate, and the acceptor plate.
# The PAMPA permeability results (10^−6 cm/s) of representative compounds are reported as “+” (<0.1 10^−6 cm/s), “++” (0.1-2.0 10^−6 cm/s), “+++” (2.0-10.010^−6 cm/s) or “++++” (>10.0 10^−6 cm/s).
# T1 sequence (Q15858 whole entry): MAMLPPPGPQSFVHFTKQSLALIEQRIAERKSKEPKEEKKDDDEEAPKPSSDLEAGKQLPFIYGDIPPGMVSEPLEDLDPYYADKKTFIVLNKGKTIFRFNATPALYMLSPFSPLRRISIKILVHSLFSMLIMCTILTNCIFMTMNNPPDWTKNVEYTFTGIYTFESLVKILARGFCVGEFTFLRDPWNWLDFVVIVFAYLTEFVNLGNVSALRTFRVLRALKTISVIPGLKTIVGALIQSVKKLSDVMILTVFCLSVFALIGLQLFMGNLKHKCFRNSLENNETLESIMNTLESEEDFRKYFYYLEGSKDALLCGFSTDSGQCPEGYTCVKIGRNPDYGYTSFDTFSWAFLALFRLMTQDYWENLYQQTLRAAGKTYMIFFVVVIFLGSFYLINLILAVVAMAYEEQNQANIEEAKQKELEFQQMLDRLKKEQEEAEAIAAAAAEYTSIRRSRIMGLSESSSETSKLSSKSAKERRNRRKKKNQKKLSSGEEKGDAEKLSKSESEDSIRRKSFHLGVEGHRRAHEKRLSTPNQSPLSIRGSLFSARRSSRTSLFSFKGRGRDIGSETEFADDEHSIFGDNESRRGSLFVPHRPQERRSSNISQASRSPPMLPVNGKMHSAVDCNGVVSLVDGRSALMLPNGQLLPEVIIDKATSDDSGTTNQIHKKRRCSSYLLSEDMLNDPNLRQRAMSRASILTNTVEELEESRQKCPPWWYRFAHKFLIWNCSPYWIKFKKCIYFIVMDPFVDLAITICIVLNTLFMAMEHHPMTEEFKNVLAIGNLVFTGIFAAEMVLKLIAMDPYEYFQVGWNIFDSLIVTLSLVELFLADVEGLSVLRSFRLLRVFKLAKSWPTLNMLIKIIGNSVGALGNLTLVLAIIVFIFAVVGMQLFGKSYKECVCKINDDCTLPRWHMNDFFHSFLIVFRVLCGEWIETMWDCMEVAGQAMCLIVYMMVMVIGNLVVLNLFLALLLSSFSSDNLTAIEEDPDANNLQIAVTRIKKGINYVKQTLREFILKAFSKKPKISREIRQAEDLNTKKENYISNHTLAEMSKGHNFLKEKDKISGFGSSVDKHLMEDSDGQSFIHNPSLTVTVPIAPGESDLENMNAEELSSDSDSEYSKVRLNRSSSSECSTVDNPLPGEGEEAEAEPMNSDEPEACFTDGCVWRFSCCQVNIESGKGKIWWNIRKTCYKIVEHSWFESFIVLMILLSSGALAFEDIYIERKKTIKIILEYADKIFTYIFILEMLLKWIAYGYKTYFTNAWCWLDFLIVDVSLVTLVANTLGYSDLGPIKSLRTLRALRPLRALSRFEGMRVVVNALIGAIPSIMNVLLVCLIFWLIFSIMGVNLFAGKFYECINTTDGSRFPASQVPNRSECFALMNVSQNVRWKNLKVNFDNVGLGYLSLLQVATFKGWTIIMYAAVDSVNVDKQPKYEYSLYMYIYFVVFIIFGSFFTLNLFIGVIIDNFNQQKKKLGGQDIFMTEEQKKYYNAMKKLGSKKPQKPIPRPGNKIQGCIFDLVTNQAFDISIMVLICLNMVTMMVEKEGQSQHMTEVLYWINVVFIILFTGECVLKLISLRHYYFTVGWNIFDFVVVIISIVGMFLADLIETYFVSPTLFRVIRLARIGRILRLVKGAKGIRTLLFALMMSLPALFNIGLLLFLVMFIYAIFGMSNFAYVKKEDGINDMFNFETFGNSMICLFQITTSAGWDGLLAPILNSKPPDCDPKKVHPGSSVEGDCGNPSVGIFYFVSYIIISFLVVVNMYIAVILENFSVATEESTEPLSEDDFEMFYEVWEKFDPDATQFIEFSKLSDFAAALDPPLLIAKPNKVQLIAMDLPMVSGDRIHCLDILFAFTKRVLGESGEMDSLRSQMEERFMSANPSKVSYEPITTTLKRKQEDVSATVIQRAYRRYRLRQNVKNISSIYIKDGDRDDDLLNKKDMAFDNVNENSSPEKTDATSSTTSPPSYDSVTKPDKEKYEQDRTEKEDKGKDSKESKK
smiles,measurement,setting,value
CCOC(=O)c1cccc(C)c1NC(=O)C[n+]1cccc(-c2ccccc2)c1 [Compound 67A],inhibition at 10 µM,[1],< 40%
COC(=O)c1cccc(C)c1NC(=O)C[N+]1(Cc2ccccc2)CCCCC1 [Compound 3A],inhibition at 100 µM,[1],40 to 70%
CC[N+]1(CC(=O)Nc2c(C)cccc2C(=O)OC)CCCC(c2ccccc2)C1 (stereo not shown) [Compound 65A],inhibition at 10 µM,[1],40 to 70%
CCOC(=O)C1CCC[N+](CC(=O)Nc2c(C)cccc2C(=O)OC)(Cc2ccccc2)C1 (stereo not shown) [Compound 16A],inhibition at 30 µM,[1],40 to 70%
COC(=O)c1cccc(C)c1NC(=O)C[N+]1(CC(N)=O)CCCC(c2ccccc2)C1 (stereo not shown) [Compound 61A],inhibition at 100 µM,[1],40 to 70%
"COC(=O)c1cccc(C)c1NC(=O)C[n+]1cccc(-c2ccccc2)c1 [Compound 66A, 1-(2-((2-(methoxycarbonyl)-6-methylphenyl)amino)-2-oxoethyl)-3-phenylpyridin-1-ium Bromide]",inhibition at 30 µM,[1],40 to 70%
"COC(=O)c1cccc(C)c1NC(=O)C[N+]1(Cc2ccccc2)CCCCCC1 [Compound 1A, 1-benzyl-1-(2-((2-(methoxycarbonyl)-6-methylphenyl)amino)-2-oxoethyl)azepan-1-ium Bromide]",inhibition at 3 µM,[1],< 40%
CCOC(=O)c1cccc(C)c1NC(=O)C[N+]1(Cc2ccccc2)CCCCCCC1 [Compound 10A],inhibition at 1 µM,[1],40 to 70%
CCOC(=O)c1cccc(C)c1NC(=O)C[N+]1(Cc2ccccc2)CCCC1 [Compound 9A],inhibition at 10 µM,[1],< 40%
CCOC(=O)c1cccc(C)c1NC(=O)C[N+]1(Cc2ccccc2)CCCCC1 [Compound 4A],inhibition at 3 µM,[1],< 40%
CCOC(=O)c1cccc(C)c1NC(=O)C[N+]1(Cc2ccccc2)CCCCCC1 [Compound 2A],inhibition at 1 µM,[1],< 40%
CC[N+]1(CC(=O)Nc2c(C)cccc2C(=O)OC)CCCC(C(=O)N(C)C)C1.[I-] (stereo not shown) [Compound 44],NaV1.7 Intracellular Inhibition,[2],+ (<30%)
same,PAMPA (10^−6 cm/s),[3],+ (<0.1 10^−6 cm/s)
"CNC(=O)C[N+]1(CC(=O)Nc2c(C)cccc2C(=O)OC)CCCC(c2ccccc2)C1 (stereo not shown) [Compound 59A, 1-(2-((2-(methoxycarbonyl)-6-methylphenyl)amino)-2-oxoethyl)-1-(2-(methylamino)-2-oxoethyl)-3-phenylpiperidin-1-ium Bromide]",inhibition at 10 µM,[1],< 40%
CCOC(=O)c1cccc(C)c1NC(=O)C[n+]1cccn1C1CCCCC1.[Br-] [Compound 70],NaV1.7 Intracellular Inhibition,[2],++ (70-30%)
same,PAMPA (10^−6 cm/s),[3],+ (<0.1 10^−6 cm/s)
